# Assay results: PubChem BioAssay (NCI)
# Where “and” joins values, the source holds several entries; their conditions need not be identical. Identical values can stand only once.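 Briefly, cells in 96-well plates were exposed to five compound concentrations for 48 h, and endpoints were estimated by linear interpolation. GI50 = concentration required for 50% inhibition of growth. TGI: concentration producing complete growth inhibition.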
# Columns and labels:
# Assay in all cases: inhibition of tumour cell growth, NCI panel, 48 h
# BT-549 breast = tested on: BT-549 breast
# CCRF-CEM leukemia = tested on: CCRF-CEM leukemia
# MALME-3M melanoma = tested on: MALME-3M melanoma
# MOLT-4 leukemia = tested on: MOLT-4 leukemia
# OVCAR-4 ovarian = tested on: OVCAR-4 ovarian
# OVCAR-5 ovarian = tested on: OVCAR-5 ovarian
# SK-MEL-28 melanoma = tested on: SK-MEL-28 melanoma
# SK-MEL-5 melanoma = tested on: SK-MEL-5 melanoma
# SK-OV-3 ovarian = tested on: SK-OV-3 ovarian
# SR leukemia = tested on: SR leukemia
SMILES,GI50 (BT-549 breast) [µM],TGI (BT-549 breast) [µM],GI50 (CCRF-CEM leukemia) [µM],TGI (CCRF-CEM leukemia),GI50 (MALME-3M melanoma) [µM],TGI (MALME-3M melanoma),GI50 (MOLT-4 leukemia) [µM],TGI (MOLT-4 leukemia),GI50 (OVCAR-4 ovarian) [µM],TGI (OVCAR-4 ovarian),GI50 (OVCAR-5 ovarian) [µM],TGI (OVCAR-5 ovarian),GI50 (SK-MEL-28 melanoma) [µM],TGI (SK-MEL-28 melanoma),GI50 (SK-MEL-5 melanoma) [µM],TGI (SK-MEL-5 melanoma),GI50 (SK-OV-3 ovarian),TGI (SK-OV-3 ovarian),GI50 (SR leukemia) [µM],TGI (SR leukemia)
c1ccc2[nH]c(-c3ccc(-c4nccc5c4[nH]c4ccccc45)cc3)nc2c1,2.12,5.42,3.12,9.12 µM,1.85,3.61 µM,2.32,6.11 µM,2.27,7.75 µM,2.43,6.47 µM,1.96,3.75 µM,3.69,14.3 µM,4.37 µM,15.9 µM,2.21,6.36 µM
Cc1cc(O)c(C(C)C)cc1S(=O)(=O)O (tested in a mixture with another compound),2.26,7.54,0.323,–,0.774,–,0.401,–,0.507,6.64 µM,0.727,7.54 µM,0.634,–,0.394,1.44 µM,0.27 µM,–,0.16,–
CN(C)CCN1C(=O)c2ccccc2N(C)c2ccccc21,> 100,> 100,> 100,> 100 µM,> 100,> 100 µM,> 100,> 100 µM,> 100,> 100 µM,> 100,> 100 µM,> 100,> 100 µM,> 100,> 100 µM,> 100 µM,> 100 µM,> 100,> 100 µM
Cc1cc2c(cc1C)N(C(=O)CCl)CC(=O)N2,2.64,11.3,2.01,5.49 µM,1.81,3.81 µM,2.41,7.01 µM,1.59,3.05 µM,2.53,5.33 µM,3.89,14.8 µM,3.48,13.6 µM,12.2 µM,24.6 µM,2.65,7.04 µM
CC/C=C1/C(=O)C=C[C@@H]1C/C=C\CCCC(=O)OC,2.84,8.15,0.519,10.6 µM,2.92,9.06 µM,1.37,8.11 µM,5.24,18 µM,4.73,15.1 µM,2.52,6.27 µM,1.77,3.2 µM,7.15 µM,19.5 µM,0.563,–
C#Cc1c(F)ccc2cc(O)cc(-c3ncc4c(N5CC6CCC(C5)N6)nc(OC[C@@]56CCCN5C[C@H](F)C6)nc4c3F)c12,8.22,22.8,8.21,29.1 µM,15.5,29.3 µM,8.72,28.4 µM,16.8,37.1 µM,2.51,13.5 µM,15.6,29.1 µM,14.9,28.2 µM,17.7 µM,35.6 µM,6.53,> 100 µM
COc1ccc(-c2cn(-c3cc(OC)c(OC)c(OC)c3)c(SCc3ccccc3)n2)cc1OC,> 100,> 100,> 100,> 100 µM,> 100,> 100 µM,73.3,> 100 µM,> 100,> 100 µM,> 100,> 100 µM,> 100,> 100 µM,68.2,> 100 µM,> 100 µM,> 100 µM,97.8,> 100 µM
CC(C)(C)OC(=O)N1CCN(CCn2cc(C(F)(F)F)c3c(Cl)ncnc32)CC1,1.55,2.92,2.85,9.19 µM,13.3,27.7 µM,2.62,6.6 µM,13.2,26.7 µM,17.1,38.7 µM,1.74,3.25 µM,4.19,14.5 µM,16.7 µM,30.7 µM,2.94,> 100 µM
COc1cc(C[C@H]2c3cc(OC)c(OC)cc3CCN2C)c(Oc2cc3c(cc2OC)-c2c(OC)c(OC)cc4c2[C@H](C3)N(C)CC4)cc1OC,–,13.1,6.59,27.6 µM and 22.6 µM,5.39,17 µM and 10.2 µM,4.06,20.4 µM and 12.2 µM,14.6,23.9 µM and 28.6 µM,18,33.6 µM and 32.6 µM,2.94,9.03 µM and 8.73 µM,1.97,11.1 µM and 3.58 µM,15.1 µM and 21.1 µM,40 µM and 36.2 µM,2.44,28.6 µM and 7.84 µM
COc1cc(OC(=O)c2ccccc2)cc2c1C(=O)C=CC2=O,–,29.8,–,5.63 µM,–,27 µM,–,14.6 µM,–,12.3 µM,–,54.5 µM,–,34.5 µM,–,30.6 µM,–,37 µM,–,5.03 µM
CC(C)N(Cc1ccccc1)c1c(S)ssc1=S,3.01,9.21,0.849,6.66 µM,1.65,5.99 µM,1.69,7.39 µM,0.641,> 100 µM,3.56,> 100 µM,2.09,17.8 µM,0.605,2.82 µM,2.47 µM,9.59 µM,2.16,7.89 µM
O=C(CCCCCCCCC(=O)N/N=C\c1ccccc1O)N/N=C\c1ccccc1O,0.982,> 100,0.228,17.4 µM,0.566,17.7 µM,0.338,7.37 µM,0.33,> 100 µM,3.35,> 90.3 µM,1.08,> 100 µM,0.231,1.12 µM,0.899 µM,15.6 µM,0.16,12.9 µM
CCN(CC)CCCCNc1c2ccccc2[n+](C)c2c1[nH]c1ccccc12,1.67,4.15,0.59,3.39 µM,0.217,0.671 µM,0.269,23.8 µM,0.345,2.57 µM,1,11.5 µM,0.201,0.539 µM,0.283,0.976 µM,0.366 µM,3.72 µM,0.373,42.2 µM
